Data reported in PubChem BioAssay AID1013 (Columbia University Molecular Screening Center, 2008).
The source made the active and inactive calls. The rule behind the calls is not given here.

Experiments:
[1] = tested on: TNFa-stimulated cells, VCAM1 expression imaging; assay: inhibitors of TNFa-induced VCAM1 expression, confirmation, imaging, TNFa stimulus, retest and dose response (AID 1013);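 for cell count: compound on cells 1 h before TNFa then 24 h more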
[2] = as above; conditions: TNFa-stimulated cells, VCAM1 expression imaging; for cell count: at 10 µM, stronger effect = lower value; for inhibition: at 2 µM, stronger effect = higher value

| SMILES | IC50 [1] | cell count [2] [%] | inhibition [2] |
| --- | --- | --- | --- |
| CCN(CC)c1ccc(-c2nn3c(-c4ccccc4OC)nnc3s2)cc1 | 2.97 µM | 31.6 | – |
| CCOc1ccccc1C(=O)N1CCN(c2cccc(Cl)c2)CC1 | 0.231 µM | 15.7 | – |
| CC1CCC/C=C/C2CC(O)CC2C(O)/C=C/C(=O)O1 (stereo not drawn) | 0.112 µM | 19.2 | – |
| COc1ccc(-c2cc3ccccc3oc2=O)cc1NC(=O)c1ccc([N+](=O)[O-])o1 | > 10 µM (inactive) | 107 | – |
| CCSc1nc2ccccc2n1C(=O)/C=C\c1ccc(OC)c(OC)c1 | > 10 µM (inactive) | 98.3 | – |
| CCN(CC)c1ccc2cc(-c3nc4ccccc4n3C)c(=O)oc2c1 | > 10 µM (inactive) | 106 | – |
| COc1ccc(C(=O)c2ccc(N(C)C)cc2)c2ccccc12 | > 10 µM (inactive) | 93.2 | – |
| COc1cc(C2C(C#N)=C(C)NC3=C2C(=O)c2ccccc23)cc(OC)c1OC (stereo not drawn) | 0.221 µM | 32 | – |
| CCn1c2ccccc2c2cc(NC(=O)c3cc(OC)c(OC)c(OC)c3)ccc21 | 2.79 µM | 33.6 | – |
| COc1cc(/C=C(/C#N)C(=O)NCCc2c[nH]c3ccccc23)ccc1OCc1ccccc1F | > 10 µM (inactive) | 98.2 | – |
| CCOC(=O)c1[nH]c(C)c(C(=O)N2CCc3ccccc32)c1C | 0.778 µM | 61.8 | – |
| COc1cc(C(=O)N/N=C/c2ccsc2C)cc(OC)c1OC | > 10 µM (inactive) | 48.6 | – |
| CCCOC(=O)c1[nH]c2c(c1C)C(=O)CC(c1cccs1)C2 (stereo not drawn) | > 10 µM (inactive) | 89 | – |
| CC(C)Oc1ccccc1C1CC(=O)Nc2cc3c(cc21)OCO3 (stereo not drawn) | > 10 µM (inactive) | 80.6 | – |
| O=C1c2cccc3c([N+](=O)[O-])ccc(c23)C(=O)N1c1ccc(Cl)cn1 | > 10 µM (inactive) | 103 | – |
| COc1ccc(-c2cc(C(F)(F)F)n3nc(C(=O)Nc4cc(C)on4)cc3n2)cc1OC | > 10 µM (inactive) | 97.9 | – |
| CCOc1ccc(C2=Nn3c(nnc3-c3ccccc3OC)SC2)cc1 | < 0.1 µM | 32.1 | – |
| Cc1cc(NC(=O)CSc2nc3ccccc3c(=O)n2C2CCCC2)no1 | > 10 µM (inactive) | 111 | – |
| Cc1cccc(OCC(=O)Nc2cc(C)ccc2O)c1 | 0.452 µM | 91.2 | – |
| O=C(CS(=O)c1ccc(C(F)(F)F)cc1[N+](=O)[O-])Oc1ccc(Cl)cc1 (stereo not drawn) | > 10 µM (inactive) | 111 | – |
| O=C1C(=O)c2ccccc2-c2ccccc21 | 3 µM | 44.1 | – |
| COc1ccc(CS(=O)(=O)/C(Cl)=C(/Cl)C(=O)Nc2ccc(OC)nc2)cc1 | 2 µM | 2.22 | – |

| SMILES | IC50 [1] | cell count [2] [%] | inhibition [2] |
| --- | --- | --- | --- |
| O=Cc1cc2ccccc2nc1SCc1ccc(Cl)cc1 | > 10 µM (inactive) | 99.9 | – |
| NC(=S)N/N=C\c1ccc(-c2cccc(Cl)c2Cl)o1 | > 10 µM (inactive) | 106 | – |
| O=C(NC(Nc1nc2ccc([N+](=O)[O-])cc2s1)(C(F)(F)F)C(F)(F)F)c1ccccc1 | 0.34 µM | 46.9 | – |
| Cc1ccc(Nc2nc(-c3c(C)nc4ccccn34)cs2)cc1 | 3.8 µM | 27.9 | – |
| Cc1c(C(=O)OCC(C)C)[nH]c2c1C(=O)CC(c1ccco1)C2 (stereo not drawn) | > 10 µM (inactive) | 48.4 | – |
| CCc1ccc2oc(-c3cc(N)ccc3O)nc2c1 | > 10 µM (inactive) | 97.7 | – |
| CC(C)(C)C(=O)/C(=C\c1cccc([N+](=O)[O-])c1)n1cncn1 | 1.09 µM | 1.73 | – |
| Cc1ccccc1NC1=C/C(=N\S(=O)(=O)c2cccs2)c2ccccc2C1=O | > 10 µM (inactive) | 99.8 | – |
| O=[N+]([O-])c1ccc(O)c(/C=N/Nc2ccc(Cl)nn2)c1 | > 10 µM (inactive) | 106 | – |
| Cc1ccc2[nH]c(-c3ccccc3)cc(=O)c2c1 | 4.49 µM | 63.3 | – |
| CCC(=O)Nc1nc(-c2ccccc2)ns1 | > 10 µM (inactive) | 115 | – |
| CCCCCCCCCCn1c2c(c(=N)c3c1CCC3)CCC2 | 0.55 µM | – | – |
| Cc1ccc(O)c(NC(=O)C2CC(c3c(F)cccc3Cl)=NO2)c1 (stereo not drawn) | > 10 µM (inactive) | 105 | – |
| CC1=C([N+](=O)[O-])C(c2ccccc2)C2=C(N1)c1ccccc1C2=O (stereo not drawn) | > 10 µM (inactive) | 111 | – |
| O=C(c1ccc([N+](=O)[O-])cc1)N(Cc1ccc(Cl)cc1)N1C(=O)CCCC1=O | > 10 µM (inactive) | 91.5 | – |
| O=Cc1cc2ccccc2nc1SCc1ccc(Cl)c(Cl)c1 | > 10 µM (inactive) | 109 | – |
| CC(=O)c1c(C)oc2ccc(N(C(C)=O)S(=O)(=O)c3ccc(Cl)c([N+](=O)[O-])c3)cc12 | > 10 µM (inactive) | 104 | – |
| O=C(Nc1ccccc1)c1nnsc1S(=O)c1ccc(Cl)cc1 (stereo not drawn) | > 10 µM (inactive) | 95.6 | – |
| COc1cc2c(O)c3c(c(-c4ccc5c(c4)OCO5)c2cc1OC)C(=O)OC3 | 3.24 µM | 86.8 | – |
| O=C(N/N=C/C(Br)=C\c1ccccc1)c1n[nH]c2c1CCC2 | 0.636 µM | 29.2 | – |
| Cc1ccc2[nH]c3c(c2c1)CCC3=O | 1 µM | 72 | – |
| C=CCn1c(SCc2c(C)noc2C)nc2ccccc2c1=O | > 10 µM (inactive) | 43.3 | – |

| SMILES | IC50 [1] | cell count [2] [%] | inhibition [2] |
| --- | --- | --- | --- |
| Cc1ccc(-c2nc(NC(=O)c3nn(C)cc3[N+](=O)[O-])sc2C)cc1C | > 10 µM (inactive) | 94.9 | – |
| CN(C)c1ccc(C(=O)c2ccc(N(C)C)c3ccccc23)cc1 | 1.72 µM | 27.7 | – |
| CCC(C)[C@@H](NC(=O)OC(C)(C)C)c1nnc(S(=O)(=O)Cc2cccc(C)c2)o1 (stereo partly drawn) | > 10 µM (inactive) | 95.6 | – |
| CCN(CC)c1ccc2c(c1)OC(N)=C(C#N)C2c1cccnc1 (stereo not drawn) | 0.38 µM | 29.8 | – |
| CCOC(=O)C1=C(c2ccccc2)O/C(=C(/C#N)C(F)(F)F)S1 | > 10 µM (inactive) | 107 | – |
| COc1ccc(C(=O)C(CN2CCCC2)c2ccccc2)cc1 (stereo not drawn) | 2.07 µM | 73.4 | – |
| Cn1cc(/C=N/n2cnc3scc(-c4ccc(Cl)cc4)c3c2=O)c2ccccc21 | > 10 µM (inactive) | 88.1 | – |
| CCOc1ccc(S(=O)(=O)Nc2cc(OC)ccc2OC)cc1 | 1.78 µM | 45.4 | – |
| CC(C)Oc1ccccc1C1CC(=O)Nc2cc3c(cc21)OCCO3 (stereo not drawn) | > 10 µM (inactive) | 104 | – |
| CCOC(=O)c1[nH]c(C)c(C(=O)c2ccc(C)cc2)c1C | > 10 µM (inactive) | 85.6 | – |
| COC(=O)c1ccccc1NC(=O)Cn1c(-c2nonc2N)nc2ccccc21 | > 10 µM (inactive) | 104 | – |
| CC1CC(=O)NN=C1c1ccc(NCCO)c([N+](=O)[O-])c1 (stereo not drawn) | 0.051 µM | 71.6 | – |
| Cc1cc(C)c(/C=N/NC(N)=O)c(C)c1/C=N/NC(N)=O | 0.517 µM | 71.9 | – |
| CC1=CC(C)(C)N(S(=O)(=O)c2ccc(C)cc2)c2cc(C)ccc21 | > 10 µM (inactive) | 113 | – |
| COc1ccc(NC(=O)/C(Cl)=C(/Cl)S(=O)Cc2ccc(C)cc2)cn1 (stereo not drawn) | 2.19 µM | 55 | – |
| O=c1cc(C(Cl)(Cl)Cl)oc2c1ccc1ccccc12 | > 10 µM (inactive) | 104 | – |
| CCN(CC)c1ccc(C2=NNC(=O)CC2C)cc1[N+](=O)[O-] (stereo not drawn) | 0.0384 µM | 50.8 | – |
| Cc1ccc(-c2nn(C(C)(C)C)c3ncnc(N)c23)cc1 | – | – | -0.9% (inactive) |
| O=C(COC(=O)C1(c2ccccc2F)CCCC1)NC1CCS(=O)(=O)C1 (stereo not drawn) | – | – | -6.3% (inactive) |
| CCOC(=O)c1ccc(NS(=O)C23CC4CC(CC(C4)C2)C3)cc1 (stereo not drawn) | – | – | -13.9% (inactive) |
| COc1ccc(OC)c2sc(NC(=O)CCS(=O)(=O)c3ccccc3)nc12 | – | – | 23% (inactive) |
| CCCCSc1nc(C)cc(SCC(=O)N/N=C/c2cccc(OC)c2O)n1 | – | – | 22.8% (inactive) |

| SMILES | IC50 [1] | cell count [2] [%] | inhibition [2] |
| --- | --- | --- | --- |
| Cc1ccc(C(=O)OCn2ncc(Cl)c(Cl)c2=O)cc1 | 2.31 µM | – | – |
| COCCCNC(=O)c1cn(C)c(=O)c2cc(OC)c(OC)cc12 | – | – | 4.1% (inactive) |
| CSc1ccc(CNC2CN3CCC2CC3)cc1 (stereo not drawn) | – | – | 6.9% (inactive) |
| COC1(c2ccccc2)NC(=S)NN=C1c1ccccc1 (stereo not drawn) | – | – | -8.1% (inactive) |
| COc1ccc(-c2nc(-c3ccc(NC(=O)c4ccc(Br)o4)cc3)no2)cc1OC | – | – | 11.9% (inactive) |
| CCOC(=O)C1C(=O)NC(N2CCCCC2)=NC1c1ccco1 (stereo not drawn) | – | – | -0.9% (inactive) |
| CCn1c(SCC(=O)N2CCN(c3cccc(Cl)c3)CC2)nc2ccccc2c1=O | – | – | 8.3% (inactive) |
| O=C(CN1CCN(c2nc(-c3ccc(F)cc3)cs2)CC1)Nc1ccc2c(c1)OCO2 | – | – | 16.2% (inactive) |
| Cc1nc2ccccc2n1CCCOc1ccccc1 | – | – | -0.7% (inactive) |
| C=CCOc1c2ccc(C(=O)NCc3ccccc3OC)cc2nn1C | – | – | 4.3% (inactive) |
| O=C(Nc1ccccc1)c1nnsc1S(=O)(=O)c1ccc(Cl)cc1 | – | – | 20.4% (inactive) |
| O=C(N/N=C/c1ccc[nH]1)c1sc2ccccc2c1Cl | – | – | 13.1% (inactive) |
| CCOC(=O)c1cnn(-c2nc(-c3ccc(C)cc3)cs2)c1C(F)(F)F | – | – | 8.3% (inactive) |
| CN1CCCCc2c1[nH]c1ccccc1c2=O | – | – | 5.5% (inactive) |
| O=C(Nc1ccccc1)/C(=C\c1ccc2c(c1)OCO2)NC(=O)c1ccco1 | – | – | -3% (inactive) |
| CCc1nc2oc3ccccc3c(=O)c2c(=O)n1CCOC | – | – | -0.1% (inactive) |
| COc1ccc(-c2c/c(=N\c3nc(-c4ccccc4)c(C)s3)c3ccccc3o2)cc1O | – | 98 | 34.3% (inactive) |
| COC(=O)C1C(=O)C2=C(CC1C)NC(=O)CC2c1cccc(C)c1 (stereo not drawn) | – | – | -3.9% (inactive) |
| CCOC(=O)Cc1cc(-c2ccc(O)cc2)nc2ccc3ccccc3c12 | – | 100 | 35.9% (inactive) |
| Nc1cc(=O)nc(SCc2ccccc2)n1Cc1ccco1 | – | – | 7% (inactive) |
